How the values were obtained:
[1] = molecular target: T1, human type 3 17β-hydroxysteroid dehydrogenase (Homo sapiens, UniProt P37058); assay: Enzymatic assay for type 3 17β-HSD; type: biochemical; settings: for IC50: Table 4′, read-out: Inhibition Type 3 17β-HSD Activity IC50
T1 construct: expressed in transfected cells; host or cells: 293 cells, transient transfection; microsomal fraction (100 000×g pellet)
T1 sequence (P37058 1-310): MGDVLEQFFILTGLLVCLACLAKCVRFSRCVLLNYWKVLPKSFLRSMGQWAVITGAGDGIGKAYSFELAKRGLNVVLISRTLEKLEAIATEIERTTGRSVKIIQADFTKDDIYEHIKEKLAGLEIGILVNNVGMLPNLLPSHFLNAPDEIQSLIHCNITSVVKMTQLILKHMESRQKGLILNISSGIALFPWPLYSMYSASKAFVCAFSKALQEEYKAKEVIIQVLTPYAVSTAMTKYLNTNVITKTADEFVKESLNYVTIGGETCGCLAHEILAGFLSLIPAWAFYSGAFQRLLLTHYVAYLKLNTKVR
Description: Enzymatic assay for types 1, 2, and 3 17β-HSD and types 1 and 3 3α-HSD”. Lower numbers of IC50 are desirable. Blank means that a determination was not done. The % of inhibition at the concentration of 3.10^−6M determined in preliminary screening test is reported in square braquets.
(§1) Enzyme sources. 293 cells transiently transfected with expression vectors encoding types 1, 2 and 3 17β-HSD (Luu-The et al., J. Steroid Biochem. Molec. Biol., 55: 581-587, 1995), types 1 and 2 5α-reductase (Luu-The et al., J. Invest. Dermatol., 102: 221-226, 1994) and types 1 and 3 3α-HSD (Dufort et al. Biochem. Biophys. Res. Commun. 228: 474-479, 1996), using the calcium phosphate procedure (Kingston et al., In: Current Protocols in Molecular Biology. Edited by E. M. Ausbel, R. Brent, R. E. Kingston, D. D. Moore, J. G. Seidman, J. A. Smith, K. Struhl. John Wiley & Sons, New York, pp. 9.1.1-9.1.9, 1991; Luu-The et al., J. Invest. Dermatol., 102: 221-226, 1994). For assays using cell subfractions, cells were sonicated in 50 mM sodium phosphate buffer (pH 7.4), containing 20% glycerol and 1 mM EDTA and centrifuged at 10 000×g for 30 min before centrifugation for 100 000×g for 1 h to separate the mitochondrial and microsomal fractions, respectively. The cytosol fractions (100 000×g supernatant) was used to determine type 1 activity while the microsomal fraction (pellet at 100 000×g) was used for measurement of types 2 and 3 17β-HSD activities.
(§2) Incubation. The enzymatic reaction was carried out at 37° C. in 1 ml of 50 mM sodium phosphate buffer, pH 7.4, containing 20% glycerol, 1 mM EDTA, and 2 mM cofactors (NADPH or AND^+) for 1 h in the presence of 0.1 μM ^14C-labeled substrate: estrone and 4-dione for types 1 and […] 17β-HSD, respectively, testosterone for type 2 17β-HSD as well as types 1 and 2 5α-reductases, DHT for types 1 and 3 3α-HSD activities, and the indicated concentration of inhibitor.
(§3) Extraction of metabolites, migration on TLC and quantification were as described above for the assay of type 5 17β-HSD.

[2] = molecular target: T2, human type 1 3α-hydroxysteroid dehydrogenase (Homo sapiens, UniProt P17516); assay: Enzymatic assay for type 1 3α-HSD; type: biochemical; settings: Table 4′; for IC50: read-out: Inhibition Type 1 3α-HSD Activity IC50
T2 sequence (P17516 1-323): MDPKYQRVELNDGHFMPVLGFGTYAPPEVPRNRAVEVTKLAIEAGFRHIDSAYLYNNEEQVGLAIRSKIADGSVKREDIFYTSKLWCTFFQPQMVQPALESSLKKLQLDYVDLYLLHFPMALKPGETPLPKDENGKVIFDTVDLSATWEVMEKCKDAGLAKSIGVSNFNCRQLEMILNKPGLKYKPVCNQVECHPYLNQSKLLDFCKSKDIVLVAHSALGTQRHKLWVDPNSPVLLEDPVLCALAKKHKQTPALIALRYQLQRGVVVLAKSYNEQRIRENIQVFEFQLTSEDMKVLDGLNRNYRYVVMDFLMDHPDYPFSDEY
Protocol: The manner in which IC50 was determined is described in “Efficacy of Preferred Inhibitors: VI. Enzymatic assay for types 1, 2, and 3 17β-HSD and types 1 and 3 3α-HSD”. […] numbers of IC50 are desirable. Blank means that a determination was not done. […]
as §1, §2, §3

Compound	IC50 [1] [µM]	IC50 [2] [µM]	Inhibition Type 1 3α-HSD Activity [% Inh. at 3 · 10^8M] ([2]; bracketed value, 3 · 10^−6 M)	inhibition at 3 µM ([1]; 3 · 10^−6 M, value in square brackets, read-out: Inhibition Type 3 17B-HSD Activity [% Inh. at 3 · 10^−6 M]) [%]
CC1(C)CCC2(CCC3C4CCc5cc(OS(C)(=O)=O)ccc5C4CCC32C)OC1=O (centres unmarked) [EM-1365-CS]	> 10	> 10		
CC1(C)CC[C@@]2(CCC3C4CCc5cc(F)ccc5C4CC[C@@]32C)OC1=O (some centres unmarked) [EM-1157-CS]	> 10	> 10		
CC1(C)CC[C@@]2(CCC3C4CCc5cc(C(=O)O)ccc5C4CC[C@@]32C)OC1=O (stereo partly drawn) [EM-1401, 3-Carboxy-1,3,5(10)-estratrien-17(R)-spiro-2′-(5′,5′-dimethyl-6′-oxo)tetrahydropyran]	> 10		[76] %	
COCCOc1cc2c(cc1C#N)C1CC[C@@]3(C)C(CC[C@@]34CCC(C)(C)C(=O)O4)C1CC2 (some centres unmarked) [EM-1396]	> 10	> 10		
COCCOc1cc2c(cc1C(=O)OC)C1CC[C@@]3(C)C(CC[C@@]34CCC(C)(C)C(=O)O4)C1CC2 (stereo partly drawn) [EM-1402-CS, 2-Carbomethoxy-3-(2″-methoxyethyloxy)-1,3,5(10)-estratrien 17(R)-spiro-2′-(5′,5′-dimethyl-6′-oxo)tetrahydropyran]	> 10	> 10		
COc1ccc2c(c1)C(=O)CC1C2CC[C@@]2(C)C1CC[C@@]21CCC(C)(C)C(=O)O1 (some centres unmarked) [EM-1394]	> 10	> 10		
CC1(C)CC[C@@]2(CCC3C4CCc5cc(C(N)=O)ccc5C4CCC32C)OC1=O (some centres unmarked) [EM-1404]	> 10	> 10		
CCC[C@@H]1CC2C3C=CC4=CC(=O)CC[C@]4(C)C3CC[C@]2(C)C1=O (some centres unmarked) [EM-1097]				82
COCCOc1cc2c(cc1C(N)=O)C1CC[C@@]3(C)C(CC[C@@]34CCC(C)(C)C(=O)O4)C1CC2 (stereo partly drawn) [EM-1424, 2-Carbamoyl-3-(2″-methoxyethyloxy)-1,3,5(10)-estratrien 17(R)-spiro-2′-(5′,5′-dimethyl-6′-oxo)tetrahydropyran]	> 10	> 10		

— patent US6541463B1, “Inhibitors of type 5 and type 3 17β-hydroxysteroid dehydrogenase and methods for their use” (Endorecherche, Inc., priority 1998, dated 2003)
